Patent US7767659B2, “Synthesis of naturally occurring ecteinascidins and related compounds” (Pharma Mar, S.A., priority 2002, dated 2010)

What was measured:
HeLa-APL = experiment: Inhibition of cells growth by colorimetric assay (SRB); details: Homo sapiens, 48 h
How it was run: (§1)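 Colorimetric SRB read (490 nm) on triplicate wells after 48 h at 37 °C, 5% CO2. Dose range 10 to 10^−8 μg/ml; 5×10^3 cells/well pre-attached 18 h.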

SK-MEL-28 = experiment: as above; details: Homo sapiens, SK-MEL-28, 48 h
How it was run: as §1

LoVo-Dox = experiment: as above; details: Homo sapiens, 48 h
How it was run: as §1

SK-BR-3 = experiment: as above; details: Homo sapiens, SK-BR-3, 48 h
How it was run: as §1

IGROV-ET = experiment: as above; details: Homo sapiens, 48 h
How it was run: as §1

K-562 = experiment: as above; details: Homo sapiens, K562, 48 h
How it was run: as §1

LNCaP = experiment: as above; details: Homo sapiens, LNCaP, 48 h
How it was run: as §1

IGROV-1 = experiment: as above; details: Homo sapiens, IGROV-1, 48 h
How it was run: as §1

PANC-1 = experiment: as above; details: Homo sapiens, PANC-1, 48 h
How it was run: as §1

DU-145 = experiment: as above; details: Homo sapiens, DU-145, 48 h
How it was run: as §1

HeLa = experiment: as above; details: Homo sapiens, HeLa, 48 h
How it was run: as §1

A-549 = experiment: cells; details: Homo sapiens, A549, 48 h
How it was run: as §1

HT-29 = experiment: cells; details: Homo sapiens, HT-29, 48 h
How it was run: as §1

LoVo = experiment: cells; details: Homo sapiens, LoVo, 48 h
How it was run: as §1

COc1ccc2[nH]c3c(c2c1)CCN[C@]31CS[C@@H]2c3c(OC(C)=O)c(C)c4c(c3[C@H](COC1=O)N1C2[C@@H]2N[C@@H](Cc3cc(C)c(OC)c(O)c32)[C@@H]1O)OCO4 (stereo partly drawn) [compound 64]
GI50 (HeLa-APL; read-out: HELA-APL GI50): 2.39 nM
CC50 (HeLa-APL; read-out: HELA-APL LC50): 9.63 nM
IC (TGI) (HeLa-APL; read-out: HELA-APL TGI): 4.8 nM
GI50 (SK-MEL-28; read-out: MEL-28 GI50): 2.65 nM
CC50 (SK-MEL-28; read-out: MEL-28 LC50): 20.5 nM
IC (TGI) (SK-MEL-28; read-out: MEL-28 TGI): 6.24 nM
GI50 (LoVo-Dox; read-out: LOVO-DOX GI50): 320 nM
CC50 (LoVo-Dox; read-out: LOVO-DOX LC50): 13000 nM
IC (TGI) (LoVo-Dox; read-out: LOVO-DOX TGI): 2760 nM
GI50 (SK-BR-3; read-out: SK-BR3 GI50): 0.717 nM
CC50 (SK-BR-3; read-out: SK-BR3 LC50): 13000 nM
IC (TGI) (SK-BR-3; read-out: SK-BR3 TGI): 150 nM
GI50 (IGROV-ET; read-out: IGROV-ET GI50): 34.8 nM
CC50 (IGROV-ET; read-out: IGROV-ET LC50): 8300 nM
IC (TGI) (IGROV-ET; read-out: IGROV-ET TGI): 171 nM
GI50 (K-562; read-out: K562 GI50): 0.86 nM
CC50 (K-562; read-out: K562 LC50): 812 nM
IC (TGI) (K-562; read-out: K562 TGI): 4.71 nM
GI50 (LNCaP; read-out: LNCAP GI50): 1.02 nM
CC50 (LNCaP; read-out: LNCAP LC50): 6.12 nM
IC (TGI) (LNCaP; read-out: LNCAP TGI): 2.67 nM
GI50 (IGROV-1; read-out: IGROV GI50): 1.78 nM
CC50 (IGROV-1; read-out: IGROV LC50): 10.9 nM
IC (TGI) (IGROV-1; read-out: IGROV TGI): 4.41 nM
GI50 (PANC-1; read-out: PANC-1 GI50): 2.46 nM
CC50 (PANC-1; read-out: PANC-1 LC50): 13000 nM
IC (TGI) (PANC-1; read-out: PANC-1 TGI): 10.9 nM
GI50 (DU-145; read-out: DU145 GI50): 2.89 nM
CC50 (DU-145; read-out: DU145 LC50): 13000 nM
IC (TGI) (DU-145; read-out: DU145 TGI): 153 nM
GI50 (HeLa; read-out: HELA GI50): 2.4 nM
CC50 (HeLa; read-out: HELA LC50): 10 nM
IC (TGI) (HeLa; read-out: HELA TGI): 4.89 nM
GI50 (A-549; read-out: A549 GI50): 5.19 nM
CC50 (A-549; read-out: A549 LC50): 1120 nM
IC (TGI) (A-549; read-out: A549 TGI): 36.6 nM
GI50 (HT-29; read-out: HT29 GI50): 3.58 nM
CC50 (HT-29; read-out: HT29 LC50): 13000 nM
IC (TGI) (HT-29; read-out: HT29 TGI): 13.2 nM
GI50 (LoVo; read-out: LOVO GI50): 4.15 nM
CC50 (LoVo; read-out: LOVO LC50): 12500 nM
IC (TGI) (LoVo; read-out: LOVO TGI): 10.3 nM
